# Tests used:
# A6 cells = assay: apoptosis time course (DNA fragmentation, propidium iodide staining, cytochrome c release); assay type: cell-based, mouse; settings: 3 μM F16, 48, 60 and 72 hr, FIG. 6
# Description: The DNA fragmentation assay was conducted by isolating DNA from 1×10^6 of untreated or F16 treated for 48, 60 and 72 hr using Suicide-Track TM (Oncogene) according to manufacturer's procedure. Samples were resolved by agarose gel electrophoresis and ethidium-bromide stained. Cytochrome c release was measured by immunofluorescence as follows. Untreated or F16-treated A6 cells were washed and fixed with ice-cold 3.7% paraformaldehyde at RT, permeabilized for with ice-cold 0.01% (v/v) Nonidet P-40 for 20 min and incubated with 0.5% BSA/PB. Immunodetection was performed with monoclonal anti-cytochrome c antibody (PharMingen) and secondary anti-mouse-TRITC conjugated antibody. Cells were photographed under Axioskop using a Spot Camera (Diagnostic Instruments).
# [1] = level of F16 in serum of mice by fluorescence; assay type: in vivo, mouse; settings: 12.5 or 25 mg/kg intraperitoneally
# Description: To determine the levels of F16 present in the blood of mice after injection of F16, two mice were injected intraperitoneally with 25 mg/kg F16 and two mice were injected intraperitoneally with 12.5 mg/kg of F16. […] 40-50 μL of blood was obtained from the tail vein of the mice and placed into tubes incubated in ice and containing Heparin to a final concentration of 20U/mL of blood. Samples were centrifuged at 6,000 rpm for 3 minutes in the cold room. Serum was transfered to a clean tube and stored at −70° C. until further processing. 2 μL of serum samples were spotted onto Whatman paper, alongside with dilutions of F16 as a standard. Since F16 is a fluorescent compound (see below), the presence of F16 was deteremined by measuring its fluorescence emission using the Storm 860 (Molecular Dynamics). The concentration of F16 in serum samples was estimated by visual comparison to the intensity of the standard.
# [2] = system: kidney, heart and liver samples; assay: pathology examination of kidney, liver and heart; assay type: in vivo, mouse; settings: four F16 treated and four placebo mice
# From the text: All the tumors from the twenty mice as well as kidney, liver and heart samples from four placebo and four F16 treated mice were sent for pathology examination. […] Necrosis probably results from the lack of sufficient blood supply to these fast growing tumors.
# [3] = FACS analysis of F16 in tumor cell populations; assay type: in vivo, mouse; settings: tumors of F16-treated nude mice
# Description: Several tumor cell populations from F16 treated and untreated mice were analyzed by FACS, in order to determine the presence of F16 in the cells.
# [4] = system: F16-resistant normal mammary epithelial and human cancer cell lines; assay: F16 accumulation in the presence of MDR-1 and MRP1 inhibitors; assay type: cell-based; settings: 3 μM F16 with 50 μM verapamil/1 mM probenecid
# From the text: To evaluate the effect of multi-drug resistance pumps on the F16-insensitive cells, inhibitors of MDR-1 and MRP1 were utilized (Lizardet al. (1994) Cell Biol Toxicol (10) 399-406).
# [5] = system: EpH4-EV and EpH4-A6 cells; assay: superoxide levels by dihydroethidium flow cytometry; assay type: cell-based, mouse; settings: 3 μM F16, FIG. 11
# From the text: Besides ATP synthesis, the mitochondria plays different roles in cell physiology, among them control of the redox state of cells. Changes in the level of superoxide anion as an indicator of alterations in reactive oxygen intermediates generation by mitochondria of cells treated with F16 was examined by flow cytometry. Changes in the levels of intracellular oxidants were investigated using the fluorescent probe dihydroethidium (DHE) (Molecular Probes). Superoxide anion can oxidate DHE to ethidium bromide (EtBr) which binds to DNA. […] EpH4-EV and EpH4-A6 cells were grown in the absence or in the presence of 3 μM F16 for 15, 24, 48 and 72 hr. cells were resuspended and diluted to 10^6 cells/mL. DHE was added to the cell suspension to a final 2 μM in each case. Cells were incubated at 37° C. for 15 min and immediately analysed using flow cytometry.
# [6] = system: isolated mouse liver mitochondria; assay: mitochondrial oxygen consumption (Clarke-type oxygen electrode); assay type: biochemical
# Description: Mitochondria were isolated from liver of Balb/c7 mice by standard differential centrifugation, and resuspended in isolation buffer (0.2 M sucrose, 10 mM Tris-MOPS pH 7.4, 0.1 mM EGTA-Tris, 0.1% delipidated BSA) (Costantini et al. (1995) Toxicology (99) 77-88). Protein concentration was determined by Bradford assay. For swelling determination, changes in side scatter at 545±2.5 nm of a 0.5 mg/ml suspension of mitochondria in experimental buffer (125 mM KCl, 10 mM Tris-MOPS pH 7.4, 1 mM Pi, 5 mM glutamate, 2.5 mM malate, 10 μM EGTA-Tris, pH 7.4) were monitored by using LS-50B spectrofluorimeter. To monitor changes in mitochondrial membrane potential, the intrinsic potentiometric properties of F16 were used. Mitochondria (0.5 mg/ml) were incubated in experimental buffer with the indicated concentrations of F16 and changes in F16 fluorescence intensity were measured, using a LS-50B spectrofluorimeter at 25° C., with excitation and emission wavelengths set at 415±2.5 nm and 520±5 nm, respectively. […]
# The mechanism of PTP induction by F16 was further investigated as follows. […] First, the effects of F16 were measured on basal (state 4) and uncoupled mitochondrial respiration as follows. Oxygen consumption was determined using a Clarke-type oxygen electrode equipped with thermostatic control and magnetic stirring. […]
compound,measurement,setting,value
C[n+]1ccc(/C=C/c2c[nH]c3ccccc23)cc1.[I-] [F16],cell death on prolonged incubation,A6 cells,increased cell death
same,F16 in blood 20 hours after the injection,[1],not detected
same,time of the maximum level of F16 in the blood,[1]; FIG. 7,1 to 3 h
same,level of F16 in the blood at 7 hours after the injection,[1]; compared to standard,nanomolar range
same,maximum level of F16 in the blood,[1]; compared to standard,micromolar range
same,"pathology of kidney, heart and liver samples versus placebo",[2],no major differences
same,"presence of F16 in tumor cells (fluorescent signal, FACS)",[3],delivered to the tumor cell mass
same,F16 mitochondrial accumulation with MDR-1/MRP1 inhibitors,[4],did not result in F16 mitochondrial accumulation
same,superoxide level (ethidium/DNA fluorescence),[5],increase in the ethidium/DNA fluorescence
same,uncoupled mitochondrial respiration,[6],inhibits uncoupled respiration
same,state 4 (basal) mitochondrial oxygen consumption,[6]; substrates for complexes I and II+III,increase in state 4 of mitochondrial oxygen consumption
